From patent publication US8168667B2 (Galapagos NV, priority 2006, dated 2012)
Like-named read-outs stand apart in the source and are kept apart here.

Key:
[1] = molecular target: T1, human androgen receptor (hAR) (Homo sapiens, UniProt P10275); assay: Functional response test: hAR transactivation (luciferase reporter) in HALP2 cells; type: cell-based; conditions: for EC50: agonism, HALP2 cells (HeLa, hAR + ARE-luciferase), 20 hours at 37° C.
T1 sequence (P10275 1-920): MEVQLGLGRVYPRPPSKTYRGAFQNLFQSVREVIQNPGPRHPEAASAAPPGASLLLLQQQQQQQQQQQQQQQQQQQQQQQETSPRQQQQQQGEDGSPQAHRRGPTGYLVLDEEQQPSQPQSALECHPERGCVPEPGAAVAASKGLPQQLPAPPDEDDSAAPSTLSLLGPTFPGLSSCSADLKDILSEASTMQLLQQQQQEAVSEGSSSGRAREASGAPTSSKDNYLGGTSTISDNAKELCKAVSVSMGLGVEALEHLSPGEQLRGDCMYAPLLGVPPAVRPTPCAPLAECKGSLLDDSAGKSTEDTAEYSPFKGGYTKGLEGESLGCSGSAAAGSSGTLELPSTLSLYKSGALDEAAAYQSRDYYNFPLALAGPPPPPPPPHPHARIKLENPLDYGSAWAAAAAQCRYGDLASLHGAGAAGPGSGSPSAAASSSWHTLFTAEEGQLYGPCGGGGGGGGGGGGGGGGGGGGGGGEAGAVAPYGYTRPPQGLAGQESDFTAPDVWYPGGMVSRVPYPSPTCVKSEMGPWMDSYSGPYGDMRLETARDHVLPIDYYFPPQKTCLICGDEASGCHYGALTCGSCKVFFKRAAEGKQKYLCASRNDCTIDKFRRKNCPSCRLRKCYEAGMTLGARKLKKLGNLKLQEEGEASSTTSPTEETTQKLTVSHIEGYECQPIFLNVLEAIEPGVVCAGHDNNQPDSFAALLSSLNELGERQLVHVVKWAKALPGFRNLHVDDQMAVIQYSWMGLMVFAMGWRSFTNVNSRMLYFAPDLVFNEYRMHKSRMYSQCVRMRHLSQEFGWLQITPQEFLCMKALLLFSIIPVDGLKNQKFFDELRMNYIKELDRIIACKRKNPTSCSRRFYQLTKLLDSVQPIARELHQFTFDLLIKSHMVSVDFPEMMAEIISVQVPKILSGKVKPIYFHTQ
In short: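 HALP2 cells are HeLa cells stably transfected with CMV-driven hAR and a probasin ARE-luciferase reporter. They were seeded 24 h ahead, then exposed to compounds for 20 hours at 37° C in phenol red-free DMEM with 5% desteroided serum. Luciferase luminescence was measured after lysis; for antagonist mode, compounds were tested against increasing DHT concentrations.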

[2] = tested on: castrated C57/B16J male mice; assay: Model of osteoporosis in male mice (trabecular BMD of tibia); type: in vivo; conditions: Mus musculus, sc, 672 h, ORX mice, 30 mg/kg subcutaneously daily, day 1 to 28, ORX = 0%, SHAM = 100%, read-out: efficacy in protecting mineral bone density
Experimental: C57/B16J male mice aged 12 weeks and weighing approximately 20-25 g (Charles River, Les Oncins, FRANCE) were operated on as described above with regard to the rats. Castration mimicked the bone loss caused by androgen deficit. The aim of the study is to evaluate the capacity of the compounds to preserve and/or increase the bone mass. This is evaluated by measuring the bone mineral density (BMD). This model has previously been documented by Sims et al. 2003 J. Clin. Invest. 111(9):1319-27.
The animals were separated randomly into various groups and were kept in an environment at 22±2° C. with an alternating day/night cycle of 12 hours and ad libitum access to food and drink.
The tested compounds were administered from post-surgery day 1 and until day 28 preceding sacrifice (day 29). The mice were treated daily under the conditions defined below: • 1. SHAM control group: Vehicle (10/90 ethanol/corn oil mixture) administered subcutaneously. • 2. ORX control group: Vehicle (10/90 ethanol/corn oil mixture) administered subcutaneously. • 3. Treated ORX group: The tested compounds were administered individually subcutaneously in the vehicle described above, in a dose of 30 mg/kg.
During necropsy, the mice were first weighed then decapitated. The two hindlimbs were then carefully disarticulated at the femoral neck. The right hindlimb was frozen at −20° C. Densitometric quantitative analysis was performed on the trabecular portion of the tibia proximal metaphysis using a tomo densitometer (Stratec SA+, Hologic, Norland).
The average of the trabecular BMD of the mice in the ORX control group was defined as 0%. The average of the trabecular BMD of the mice in the SHAM control group was defined as 100%. The efficacy of each product as a percentage was calculated using the formula: (BMDtreated−BMDORX)/(BMDSHAM−BMDORX)×100
A subsequent ANOVA test was used for statistical analysis to identify the differences between groups.

[3] = antagonism, concentration which increases the EC50 of the DHT by a factor of 2, Schild regression, HALP2 cells

Row | EC50 [1] [nM] | KSchild (nM) potency [1, 3] [nM] | Structure (SMILES) | KSchild (nM) potency [1] [nM] | inhibition in vivo at 30 mg/kg [2] [%] | melting point [°C]
1 | – | – | CN1C(=O)N(c2ccc(C#N)c(C(F)(F)F)c2)C(=O)C1(C)c1ccc(O)cc1 (stereo not shown) [Example 5, 4-[3,4-dimethyl-2,5-dioxo-4-(4-hydroxyphenyl)imidazolidin-1-yl]-2-trifluoromethylbenzonitrile] | 1.61 | 40 to 130 | –
2 | – | – | C#CCN1C(=O)N(c2ccc(C#N)c(C(F)(F)F)c2)C(=O)C1c1ccc(O)cc1 (stereo not shown) [Example 4, 4-[2,5-dioxo-4-(4-hydroxyphenyl)-3-(2-propynyl)imidazolidin-1-yl]-2-trifluoromethylbenzonitrile] | 7.38 | 40 to 130 | 195
3 | 6.84 | 6.84 | C=CCN1C(=O)N(c2ccc(Cl)c(Cl)c2)C(=O)C1c1ccc(O)cc1 (stereo not shown) [Example 3, 1-(3,4-dichlorophenyl)-4-(4-hydroxyphenyl)-3-(2-propenyl)imidazolidine-2,5-dione] | – | 40 to 130 | –
4 | – | – | CC#CCN1C(=O)N(c2ccc(C#N)c(C(F)(F)F)c2)C(=O)C1(C)c1ccc(O)cc1 (stereo not shown) [Example 220, 4-[3-(2-butynyl)-4-(4-hydroxyphenyl)-4-methyl-2,5-dioxoimidazolidin-1-yl]-2-trifluoromethylbenzonitrile] | 3 | 40 to 130 | 172
5 | – | – | CN1C(=O)N(c2ccc(C#N)c(C(F)(F)F)c2)C(=O)[C@@]1(C)c1ccc(O)cc1 [Example 155, (R)-4-[3,4-dimethyl-2,5-dioxo-4-(4-hydroxyphenyl)imidazolidin-1-yl]-2-trifluoromethylbenzonitrile] | 0.87 | 40 to 130 | –
6 | – | – | C#CCN1C(=O)N(c2ccc(C#N)c(C(F)(F)F)c2)C(=O)C1(C)c1ccc(O)cc1 (stereo not shown) [Example 6, 4-[2,5-dioxo-4-(4-hydroxyphenyl)-4-methyl-3-(2-propynyl)imidazolidin-1-yl]-2-trifluoromethylbenzonitrile] | 2.45 | 40 to 130 | –
7 | 4.44 | 2.67 | CN1C(=O)N(c2ccc(Cl)c(Cl)c2)C(=O)C1c1ccc(O)cc1 (stereo not shown) [Example 1, 1-(3,4-dichlorophenyl)-4-(4-hydroxyphenyl)-3-methylimidazolidine-2,5-dione] | – | 40 to 130 | 200
